Patent US12343430B2, “Methods of improving pharmaceutical substance solubilization and products thereof” (MUDANJIANG LINRUN PHARAMA EXCIPIENTS LLC., priority 2019, dated 2025)
Values after ≈ are worked out from the molar mass of the structure shown.

Assays:
[1] = Solubility time profile of co-attrited Carbamazepine at 25° C., HPLC (Example 14); assay type: physicochemical; details: 500 mL DI water, paddle 100 rpm
From the text: At each time interval, a given amount of solution was sampled and tested by an HPLC method.

[2] = Solubility time profile of co-attrited Carbamazepine at 37° C. (Example 12); assay type: physicochemical; details: 100 mL DI water, 0.45 μm filter, UV 285 nm
From the text: All the final extrudant samples from Examples 8-11 were milled into powder and passed through an 80 mesh screen. […] At each sampling time, the solution sample was taken and filtered through a 0.45 μm syringe microfilter. […] For reference, the API Carbamazepine sample was used as control.

**Q.** Which “Solubility, drug concentration” value ([1]; 15 minutes) does the source give for `NC(=O)N1c2ccccc2C=Cc2ccccc21` [Carbamazepine API, Carbamazepine] here?
**A.** The value was 225.68 µg/mL (≈ 955 µM).

**Q.** And the “Solubility, drug concentration” value ([1]; 30 minutes)?
**A.** Its value is 202.16 µg/mL (≈ 856 µM).

**Q.** And the solubility at 5 min ([1]; deionised water, thermodynamic from solid, 5 minutes, read-out: Solubility, drug concentration)?
**A.** The solubility at 5 min was 89.2 µg/mL (≈ 377 µM).

**Q.** What about the solubility at 10 min ([1]; deionised water, thermodynamic from solid, 10 minutes, read-out: Solubility, drug concentration) of the same molecule?
**A.** The solubility at 10 min was 176 µg/mL (≈ 743 µM).

**Q.** And the solubility at 45 min ([1]; deionised water, thermodynamic from solid, 45 minutes, read-out: Solubility, drug concentration)?
**A.** Its solubility at 45 min is 175 µg/mL (≈ 741 µM).

**Q.** What about the solubility at 60 min ([1]; deionised water, thermodynamic from solid, 60 minutes, read-out: Solubility, drug concentration) of the same molecule?
**A.** The solubility at 60 min was 173 µg/mL (≈ 731 µM).

**Q.** And the Solubility ([2]; 60 min)?
**A.** Its Solubility is 320 µg/mL (≈ 1350 µM).

**Q.** And the Solubility ([2]; 180 min)?
**A.** Its Solubility is 288 µg/mL (≈ 1220 µM).

**Q.** And the solubility at 5 min ([2]; deionised water, thermodynamic from solid, 5 min)?
**A.** The solubility at 5 min was 404 µg/mL (≈ 1710 µM).

**Q.** What about the solubility at 10 min ([2]; deionised water, thermodynamic from solid, 10 min) of the same molecule?
**A.** Its solubility at 10 min is 402 µg/mL (≈ 1700 µM).

**Q.** What about the solubility at 15 min ([2]; deionised water, thermodynamic from solid, 15 min) of the same molecule?
**A.** Its solubility at 15 min is 401 µg/mL (≈ 1700 µM).

**Q.** And the solubility at 90 min ([2]; deionised water, thermodynamic from solid, 90 min)?
**A.** Its solubility at 90 min is 316 µg/mL (≈ 1340 µM).

**Q.** And the solubility at 120 min ([2]; deionised water, thermodynamic from solid, 120 min)?
**A.** The solubility at 120 min was 303 µg/mL (≈ 1280 µM).
